The source made the active and inactive calls.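 How the source made its calls: active means AC50 no more than ten times the top concentration tested, that is within one log above it; inconclusive means flat curve fit with activity between 30% and 70%, or invalid poor fit; inactive means AC50 beyond ten times the top tested dose.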 Some results are limits rather than exact numbers.

The subject of the test is S. cerevisiae Mot1-301 ts growth rescue, BacTiter-Glo ATP luminescence. Put plainly: growth rescue of Mot1-301 ts yeast, confirmation, SUMOylation pathway inhibitor project, whole organism, S. cerevisiae, Mot1-301 ts mutant, luminescence, dose retest (AID 463204).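 Further: growth at restrictive 38.5 degrees C of Mot1-301 OY566 strain; actives raise luminescence by restoring growth of the ts mutant at high temperature.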

As for `Cc1ccc(C)c(N2CCN(C(c3ccncc3)c3nnnn3Cc3ccccc3)CC2)c1` (centres undefined), the AC50 (commonly the concentration at which the activity in the assay is half-maximal) was > 21 µM (inactive).

Consider `Cc1ccc(/C=C/C(=O)OCC(=O)N(CC(C)C)c2c(N)n(Cc3ccccc3)c(=O)[nH]c2=O)o1`, for which the AC50 is > 21 µM (inactive). In the case of `COc1ccc(CCC(=O)NNC(=S)Nc2cccc(C(C)=O)c2)cc1`, the AC50 is > 42 µM (inactive). `CC(=O)C1(c2ccccc2)CCNCC1`: the AC50 was > 21 µM (inactive). On to `CCOc1ccc(Cl)cc1CNc1nnnn1CC`, for which the AC50 was > 42 µM (inactive). Under `CC(=O)c1cccc(NC(=O)CNC(=O)c2sc3ccccc3c2Cl)c1` stands > 42 µM (inactive). As to `O=C(Nc1ccccc1N1CCN(c2ccccc2)CC1)c1cccc(F)c1`, the AC50 was > 42 µM (inactive). Under `CCOc1ccccc1NC(=O)c1ccc2c(c1)C(=O)N(CC(C)C)C2=O` stands > 42 µM (inactive). Under `O=c1c2ccccc2nc(COc2ccccc2)n1/N=C/c1cn[nH]c1-c1ccccc1` stands > 42 µM (inactive); under `COc1ccccc1NC(=O)c1nn(C)cc1Br`, > 42 µM (inactive); under `CCOC(=O)c1cnc2ccc(Cl)cc2c1N1CCN(C)CC1`, > 42 µM (inactive).

Take `COC(=O)c1cccc(NC(=O)CN(c2ccc3c(c2)OCO3)S(C)(=O)=O)c1C`: the AC50 is > 42 µM (inactive). As to `Fc1ccc2c(c1)nnn2C1CCN(Cc2nnnn2C2CCCCC2)CC1`, the AC50 is > 42 µM (inactive). As to `Cc1ccccc1OCc1nc(-c2ccccc2)no1`, the AC50 is > 42 µM (inactive). As to `CCOC(=O)C1=C(C)NC(=O)CC1c1cc2c(cc1[N+](=O)[O-])OCO2` (centres undefined), the AC50 was > 42 µM (inactive). As for `COc1cccc(NC(=O)c2nn(C34CC5CC(CC(C5)C3)C4)cc2[N+](=O)[O-])c1`, the AC50 was > 42 µM (inactive).

For `COc1ccccc1C1NC(=O)CS1` (centres undefined), the AC50 was > 42 µM (inactive).

Regarding `COc1ccc(NC(=O)C2CCCN2S(=O)(=O)c2cccc3cccnc23)cc1OC` (centres undefined), the AC50 is > 42 µM (inactive).

On to `COc1ccc(-c2csc(NC(=O)CS(=O)(=O)c3ccc(F)cc3)n2)cc1OC`, for which the AC50 was > 42 µM (inactive). As for `Cc1ccc(NC(=S)NC(NC(=O)c2ccccc2C)C(Cl)(Cl)Cl)c(C)c1` (centres undefined), the AC50 is > 42 µM (inactive). For the molecule `CN(C(=O)COC(=O)c1cc(-c2ccc(Cl)s2)nc2ccccc12)C1CCS(=O)(=O)C1` (centres undefined), the AC50 is > 42 µM (inactive). As for `NS(=O)(=O)c1ccc(CCNC(=O)CN2CCN(c3ccc(F)cc3)CC2)cc1`, the AC50 was > 42 µM (inactive). On to `CSc1ccc(CN2CCN(S(=O)(=O)Cc3ccccc3)CC2)cc1`, for which the AC50 is > 42 µM (inactive). Regarding `CCOc1ccc(-c2nnc(SCC(=O)N3CCCC3)o2)cc1`, the AC50 is > 42 µM (inactive). Turning to `CN(C)c1ccnc2sc3c(NCC(O)CO)ncnc3c12` (centres undefined), the AC50 is > 42 µM (inactive). As for `O=C(N/N=C/c1ccccn1)NC12CC3CC(CC(C3)C1)C2`, the AC50 is > 42 µM (inactive). Consider `Cc1nc2sc(C(c3ccco3)N3CCOCC3)c(O)n2n1` (centres undefined), for which the AC50 was > 42 µM (inactive). The same measure for `CCOC(=O)c1c(C)n(C)c2cc(-c3ccc(C)cc3)c(O)cc12`: > 42 µM (inactive). Under `CCC1(CC)NC(=O)N(CC(=O)OCC(=O)NC(=O)c2ccccc2)C1=O` stands > 42 µM (inactive). `CCCCCCC(C)n1[nH]c(=O)c2c(C)cc(=O)[nH]c21` (centres undefined): the AC50 was > 42 µM (inactive). Regarding `Cc1cc(N2CCN(C)CC2)nc2ccc(NC(=S)N3CCC4(CC3)OCCO4)cc12`, the AC50 was > 42 µM (inactive).

On to `CCN(C(=O)CCS(=O)(=O)c1ccc2c(c1)oc(=O)n2C)c1ccc(OC)cc1`, for which the AC50 was > 42 µM (inactive). Turning to `CN(Cc1cccnc1)Cc1cn[nH]c1-c1ccc(-c2ccccc2)cc1`, the AC50 was > 42 µM (inactive).

As to `CC(=O)N1CCCc2cc(S(=O)(=O)Nc3ccc(C)cc3C)ccc21`, the AC50 was > 42 µM (inactive). For `Cc1cccc(N2CN=c3s/c(=C\c4ccccn4)c(=O)n3C2)c1`, the AC50 is > 42 µM (inactive). As for `COc1cccc(/C=N/NC(=O)CNC(=O)c2ccco2)c1O`, the AC50 is > 42 µM (inactive). On to `CC(C)(CNC(=O)c1cccs1)CNC(=O)c1cccs1`, for which the AC50 is > 42 µM (inactive). The same measure for `Cc1nc2sc(C(c3ccccc3)N3CCC(O)CC3)c(O)n2n1` (centres undefined): > 42 µM (inactive); for `CCn1nccc1C(=O)Nc1nccs1`: > 42 µM (inactive); for `CCN(CC)C(=O)Cn1c(=O)n(CCCC(=O)NCc2ccccc2)c(=O)c2sccc21`: > 42 µM (inactive). The same measure for `CC(=O)c1cc(C)ccc1OC(=O)c1ccco1`: > 42 µM (inactive); for `Clc1ccccc1-c1ccc2ncnc(NCc3cccs3)c2c1`: 37 µM. The same measure for `CC1CC(C)(C)NC(=S)N1CC(=O)NCc1ccc(F)cc1` (centres undefined): > 42 µM (inactive); for `CC(=O)CSc1ncnc2sc3c(c12)CCCC3`: > 42 µM (inactive); for `Cc1cccc(NC(=S)NC(=O)/C=C/c2ccco2)c1`: > 42 µM (inactive).

In the case of `Cc1ccc(C(=O)Nc2ccc3c(c2)OCCO3)c(Cl)c1`, the AC50 is > 42 µM (inactive).

Turning to `Cc1nc(SCC(=O)O)n[nH]1`, the AC50 is > 42 µM (inactive). With `COc1ccccc1CNC(=O)C(C)Sc1ccc(C)cc1` (centres undefined), the AC50 is > 42 µM (inactive).

With `O=C1CCC(C(=O)N2CCN(c3ccccc3)CC2)CN1CC1CCCCC1` (centres undefined), the AC50 is > 42 µM (inactive). `COc1ccc(CNC(=O)c2cc(=O)c3cc(C)cc(C)c3o2)cc1`: the AC50 was > 42 µM (inactive). On to `Cc1cc(C)cc(NC(=O)CS(=O)(=O)c2ccccc2)c1`, for which the AC50 was > 42 µM (inactive). Under `N#CCC(=O)N/N=C/c1ccc(OS(=O)(=O)c2ccccc2)cc1` stands > 42 µM (inactive); under `Cc1ccc(-c2nc3c(=O)n(-c4ccccc4)c4c(c(=O)n(C)c(=O)n4C)c3o2)cc1`, > 42 µM (inactive); under `O=C1CCCN1CCC(=O)N1CCCC(N2CCN(c3ccccc3F)CC2)C1` (centres undefined), > 42 µM (inactive). In the case of `O=C(NCC(=O)N(c1ccccc1)C(C(=O)NCC1CCCO1)c1ccccc1)c1cccs1` (centres undefined), the AC50 was > 42 µM (inactive).

As to `COc1cc2c(cc1OC)C(c1ccccc1[N+](=O)[O-])N(C(C)=O)CC2` (centres undefined), the AC50 was > 42 µM (inactive). In the case of `Cc1c(C(=O)NC(C)c2ccc(-n3ccnc3)cc2)cccc1[N+](=O)[O-]` (centres undefined), the AC50 is > 42 µM (inactive). The same measure for `O=C1NC2(CCCCO2)CO1` (centres undefined): > 42 µM (inactive). The same measure for `COc1nc(-c2ccccc2)ccc1-c1noc(-c2ccccc2)n1`: > 42 µM (inactive). For `COc1cc(/C=N/n2cnnc2)ccc1OCc1ccccc1`, the AC50 was > 42 µM (inactive). For `CC(OC(=O)c1cnccn1)C(=O)c1ccccc1` (centres undefined), the AC50 is > 42 µM (inactive). Under `CCOc1ccc(N(CC)S(=O)(=O)c2cccc3nsnc23)cc1` stands > 42 µM (inactive); under `COc1cc(NC(=S)N2CCN(C(=O)C3CCCO3)CC2)c(OC)cc1Cl` (centres undefined), > 42 µM (inactive); under `O=S(=O)(Nc1ccc(-c2nc3cccnc3s2)cc1)c1cc(F)ccc1F`, > 21 µM (inactive). Under `CCOP(=O)(OCC)c1cc(CC)ccc1O` stands > 42 µM (inactive); under `O=C1CCCN1CCC1CCN(C2CC(=O)N(c3ccc(Cl)cc3)C2=O)CC1` (centres undefined), 10.1 µM.

Consider `CN(C)c1cccc(C(=O)Nc2cc(C(F)(F)F)ccc2-n2cnc3ccccc32)c1`, for which the AC50 was > 42 µM (inactive). In the case of `O=C1CN(C(=O)c2ccccc2F)C(c2ccccc2)c2cc(Cl)ccc2N1` (centres undefined), the AC50 is 1.84 µM.

For the molecule `COc1ccccc1-c1sc2ccccc2c1-c1ccc2c(c1)OCO2`, the AC50 is > 42 µM (inactive). Under `CC1=NC2(CCCc3c2no[n+]3[O-])N(O)C1(C)C` (centres undefined) stands > 42 µM (inactive); under `COc1cc(COc2ccc3c(C)c(CC(=O)O)c(=O)oc3c2C)cc(OC)c1OC`, > 42 µM (inactive); under `CCN(CC)CCCNC(=O)C1c2ccccc2C(=O)N(CCOC)C1c1ccc(F)cc1` (centres undefined), > 21 µM (inactive). Under `Cc1ccc(S(=O)(=O)NCc2ccc(C(=O)N3CCN(c4ccccn4)CC3)cc2)cc1` stands > 42 µM (inactive); under `CC(C)C(=O)Nc1ccc(NC(=S)NC(=O)c2ccccc2F)cc1`, > 42 µM (inactive). Consider `O=C(COC(=O)C1COc2ccccc2O1)NC1CCS(=O)(=O)C1` (centres undefined), for which the AC50 was > 42 µM (inactive).

`Cc1cc(C(=O)NN)n[nH]1`: the AC50 was > 42 µM (inactive). `CCn1ncc(Br)c1C(=O)Nc1ccc(OC(F)(F)F)cc1`: the AC50 was > 42 µM (inactive). Under `Cc1ccc(C(=O)N/C(=C/c2ccccc2)C(=O)NCC2CCCO2)cc1` (centres undefined) stands > 42 µM (inactive). `CCc1ccc(-c2nc(SCC(=O)N3CCOCC3)n[nH]2)cc1`: the AC50 is > 42 µM (inactive). Under `CCC(C)NC(=O)CSc1nnc(-c2cc(-c3ccc(C)cc3)nc3ccccc23)n1N` (centres undefined) stands > 42 µM (inactive).

On to `O=C(O)CN(c1ccccn1)S(=O)(=O)c1ccc(Cl)cc1`, for which the AC50 is > 42 µM (inactive). Take `CCOC(=O)c1ccc(NC(=O)CC2Sc3ncnn3C2=O)cc1` (centres undefined): the AC50 was 6.96 µM. With `COC(=O)c1ccncc1C(=O)Nc1ccc(Oc2ncc(C(F)(F)F)cc2Cl)cc1`, the AC50 is > 42 µM (inactive). For `COc1cc(CN2CCCC(CO)(Cc3cccc(Cl)c3)C2)cc2c1OCO2` (centres undefined), the AC50 was > 42 µM (inactive).

Regarding `CC1CN(Cc2ccccc2)c2nc3c(c(=O)[nH]c(=O)n3C)n2C1` (centres undefined), the AC50 is > 42 µM (inactive). Regarding `CN1CCN(C(=O)CCN2C(=O)/C(=C/c3ccccc3Cl)SC2=S)CC1`, the AC50 is > 42 µM (inactive). As to `Cc1cccc(CS(=O)(=O)Cc2ccc(C(=O)NCC3CCCO3)o2)c1` (centres undefined), the AC50 is > 42 µM (inactive). As for `CCOc1ccc(-c2nc3n(c(=O)c2C#N)CCS3)cc1`, the AC50 was > 42 µM (inactive).

Consider `Cc1[nH]oc(=O)c1N=Nc1ccccc1`, for which the half-maximal activity concentration (AC50) is 30.6 µM.
